Measurements published in patent publication US20130029970A1 (priority 2009, published 2013).
Like-named read-outs stand apart in the source and are kept apart here.

How the values were obtained:
[1] = biological target: T1, recombinant human cannabinoid receptor CB1 (Homo sapiens, UniProt P21554); test: Cannabinoid receptor radioligand binding assay, [3H]-CP 55,940 displacement, hCB1
T1 construct: (cDNA clone) CNR01L000
Summary of the method: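 Membranes from HEK-293 cells stably expressing human CB1, 2-10 μg protein, incubated 90 min at room temperature with 0.5 nM [3H]-CP 55,940 in Tris-HCl pH 7.5, MgCl2, EDTA and 0.1% fatty-acid-free BSA. Bound radioactivity counted after rapid filtration; nonspecific binding defined with 1 μM unlabeled CP 55,940.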

human CB2 receptors = biological target: T2, human CB2 receptors (Homo sapiens, UniProt P34972); test: cAMP assay in HEK-293 cells, hCB2 agonist; format: cell-based
T2 construct: (cDNA clone) CNR0200000
T2 sequence (P34972 whole entry): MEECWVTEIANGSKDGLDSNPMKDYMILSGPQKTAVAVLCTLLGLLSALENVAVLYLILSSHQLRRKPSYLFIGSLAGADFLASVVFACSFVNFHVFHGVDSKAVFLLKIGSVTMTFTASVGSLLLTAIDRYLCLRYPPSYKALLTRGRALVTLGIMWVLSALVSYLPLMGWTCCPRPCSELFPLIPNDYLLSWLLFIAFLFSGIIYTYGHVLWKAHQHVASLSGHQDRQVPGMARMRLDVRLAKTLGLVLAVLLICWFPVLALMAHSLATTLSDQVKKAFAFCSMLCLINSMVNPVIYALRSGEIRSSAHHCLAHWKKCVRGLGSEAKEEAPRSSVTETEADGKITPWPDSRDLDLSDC
Summary of the method: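 HEK-293 cells stably expressing human CB2, suspended at 1,500,000 cells/mL in HBSS with 10 mM HEPES and 0.1% fatty-acid-free BSA, exposed to test compound plus forskolin (90 uM in the 3× compound solution) for 30 min at 37° C.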

human CB1 (hCB1) = biological target: T3, human CB1 (hCB1) (Homo sapiens, UniProt P21554); test: 35S GTPγS binding assay, hCB1 agonist; format: biochemical; conditions: GTPγS agonist, HEK-293 membranes; read-out: hCB1 EC50 (GTPyS ag)
T3 construct: (cDNA clone) CNR01L000
T3 sequence (P21554 whole entry): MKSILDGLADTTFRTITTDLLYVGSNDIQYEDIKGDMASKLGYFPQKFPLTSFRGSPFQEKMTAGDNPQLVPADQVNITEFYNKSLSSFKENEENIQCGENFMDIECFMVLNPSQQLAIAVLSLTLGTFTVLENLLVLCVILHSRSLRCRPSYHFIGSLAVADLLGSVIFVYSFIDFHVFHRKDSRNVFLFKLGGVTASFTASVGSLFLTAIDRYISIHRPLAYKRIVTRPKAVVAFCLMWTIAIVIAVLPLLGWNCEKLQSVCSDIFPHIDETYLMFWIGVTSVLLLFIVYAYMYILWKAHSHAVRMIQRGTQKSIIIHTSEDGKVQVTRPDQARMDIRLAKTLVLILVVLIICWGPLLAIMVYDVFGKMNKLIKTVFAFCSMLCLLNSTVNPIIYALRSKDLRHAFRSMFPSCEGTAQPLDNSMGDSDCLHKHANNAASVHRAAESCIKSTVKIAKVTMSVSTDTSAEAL

T1 sequence (P21554 whole entry): as above

| Compound | IC50 [1] | EC50 (human CB2 receptors; inhibition of forskolin-stimulated cAMP, HEK-293 cells, read-out: hCB2 EC50 (cAMP ag)) | EC50 (human CB1 (hCB1)) | EC50 (human CB2 receptors) |
| --- | --- | --- | --- | --- |
| COc1ccc(C(=O)c2cc3cc(C)n(CCCN4CCOCC4)c3s2)cc1 [Compound 107, (4-Methoxyphenyl)(5-methyl-6-(3-morpholinopropyl)-6H-thieno[2,3-b]pyrrol-2-yl)methanone] | 100 to 1000 nM | < 100 nM | 100 to 1000 nM | – |
| COc1ccc(C(=O)c2cc3cc(C)n(CCN4CCOCC4)c3s2)c(Cl)n1 [Compound 137, (2-chloro-6-methoxypyridinyl-3-yl)(5-methyl-6-(2-morpholinoethyl)-6H-thieno[2,3-b]pyrrol-2-yl)methanone] | 1000 to 10000 nM | – | 1000 to 10000 nM | < 100 nM |
| COCCN(C)CCn1c(C)cc2cc(C(=O)c3ccc(OC)nc3)sc21 [Compound 157] | 100 to 1000 nM | – | > 10000 nM | < 100 nM |
| COc1ccc(C(=O)c2cc3cc(C)n(CC(OC)OC)c3s2)cn1 [Compound 161, (6-(2,2-dimethoxyethyl)-5-methyl-6H-thieno[2,3-b]pyrrol-2-yl)(6-methoxypyridin-3-yl)methanone] | 100 to 1000 nM | – | > 10000 nM | 100 to 1000 nM |
| Cc1cc2cc(C(=O)c3ccc(O)cc3F)sc2n1CCN1CCOCC1 [Compound 165, (2-fluoro-4-hydroxyphenyl)(5-methyl-6-(2-morpholinoethyl)-6H-thieno[2,3-b]pyrrol-2-yl)methanone] | 100 to 1000 nM | – | > 10000 nM | < 100 nM |
| COc1ccc(C(=O)c2cc3cc(C)n(CC4CCC(F)(F)CC4)c3s2)cn1 [Compound 170, (6-((4,4-difluorocyclohexyl)methyl)-5-methyl-6H-thieno[2,3-b]pyrrol-2-yl)(6-methoxypyridin-3-yl)methanone] | < 100 nM | – | < 100 nM | < 100 nM |
